For assay [1], the system named is NB4 cells. Description: NB4 myeloid leukemic cell differentiation. It counts as cell-based. As to conditions: Compound 122 1 mM, TTNPB, 9-cis retinoic acid, LG100268 100 nM, FIG. 3. The protocol:
All points were performed in triplicate for each experiment and varied less than 20%. Each experiment was repeated at least three times with similar results.

The target in assay [2] is T1, RXRα (Homo sapiens, UniProt P19793).
T1 sequence (P19793 1-462): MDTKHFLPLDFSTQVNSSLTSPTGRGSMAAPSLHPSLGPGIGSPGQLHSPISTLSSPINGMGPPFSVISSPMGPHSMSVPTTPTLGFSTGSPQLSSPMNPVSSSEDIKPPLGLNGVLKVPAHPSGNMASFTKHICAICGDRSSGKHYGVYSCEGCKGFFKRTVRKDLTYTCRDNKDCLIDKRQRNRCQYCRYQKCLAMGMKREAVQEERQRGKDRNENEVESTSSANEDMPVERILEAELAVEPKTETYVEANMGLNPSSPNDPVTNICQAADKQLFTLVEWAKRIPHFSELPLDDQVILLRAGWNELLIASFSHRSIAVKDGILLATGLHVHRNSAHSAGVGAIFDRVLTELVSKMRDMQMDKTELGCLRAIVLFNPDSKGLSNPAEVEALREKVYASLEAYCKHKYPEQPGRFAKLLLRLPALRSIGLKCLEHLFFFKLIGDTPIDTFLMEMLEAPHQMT
Description: RXR binding, RXRα. As to conditions: -v- tritiated LGD1069 and tritiated 9-cis retinoic acid. On the procedure: (§1) Non-specific binding was defined as that binding remaining in the presence of 500 nM of the appropriate unlabelled compound. At the end of the incubation period, bound from free ligand were separated. The amount of bound tritiated retinoids was determined by liquid scintillation counting of an aliquot (700 μL) of the supernatant fluid or the hydroxylapatite pellet.
(§2) After correcting for non-specific binding, IC50 values were determined. […] The IC50 value was determined graphically from a log-logit plot of the data. The Kd values were determined by application of the Cheng-Prussof equation to the IC50 values, the labeled ligand concentration and the Kd of the labeled ligand.

Assay [3] deals with T2, RXRβ (Mus musculus, UniProt P28704).
T2 sequence (P28704 1-520): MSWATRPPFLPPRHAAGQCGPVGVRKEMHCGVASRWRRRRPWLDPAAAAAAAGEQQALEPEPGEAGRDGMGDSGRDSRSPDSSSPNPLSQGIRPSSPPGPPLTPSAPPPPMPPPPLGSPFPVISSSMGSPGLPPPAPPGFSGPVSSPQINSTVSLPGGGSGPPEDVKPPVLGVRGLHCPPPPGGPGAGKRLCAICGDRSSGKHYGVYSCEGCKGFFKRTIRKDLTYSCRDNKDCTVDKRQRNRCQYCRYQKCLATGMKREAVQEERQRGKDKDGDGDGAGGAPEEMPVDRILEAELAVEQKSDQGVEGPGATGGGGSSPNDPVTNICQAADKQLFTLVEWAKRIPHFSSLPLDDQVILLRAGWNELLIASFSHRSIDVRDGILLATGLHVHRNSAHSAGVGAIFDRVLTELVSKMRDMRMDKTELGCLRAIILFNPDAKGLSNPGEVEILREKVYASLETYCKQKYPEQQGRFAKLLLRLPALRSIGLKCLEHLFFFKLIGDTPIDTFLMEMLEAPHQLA
Briefly: RXR binding, RXRβ. As to conditions: -v- tritiated LGD1069 and tritiated 9-cis retinoic acid. The protocol:
as §1, §2

In assay [4] the target is T3, RXRγ (Mus musculus, UniProt P28705).
T3 sequence (P28705 1-463): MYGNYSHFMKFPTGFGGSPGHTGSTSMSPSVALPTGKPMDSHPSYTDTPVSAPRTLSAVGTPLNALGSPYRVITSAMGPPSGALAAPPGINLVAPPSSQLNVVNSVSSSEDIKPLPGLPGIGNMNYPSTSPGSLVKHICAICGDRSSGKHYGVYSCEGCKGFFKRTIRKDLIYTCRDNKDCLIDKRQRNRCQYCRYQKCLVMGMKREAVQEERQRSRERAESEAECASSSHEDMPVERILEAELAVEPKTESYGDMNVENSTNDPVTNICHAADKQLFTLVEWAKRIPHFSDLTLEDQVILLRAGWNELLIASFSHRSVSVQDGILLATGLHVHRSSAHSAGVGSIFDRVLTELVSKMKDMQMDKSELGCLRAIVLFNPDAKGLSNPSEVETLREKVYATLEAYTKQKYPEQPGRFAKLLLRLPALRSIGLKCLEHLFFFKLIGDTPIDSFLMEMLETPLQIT
Description: RXR binding, RXRγ. As to conditions: -v- tritiated LGD1069 and tritiated 9-cis retinoic acid. On the procedure:
as §1, §2

Assay [5] has as its target T1, RXRα. Briefly: RXR homodimer co-transfection assay, antagonist mode, RXRα. As to conditions: read-out: RXRα Potency IC50; antagonist potency in the presence of the known RXR agonist LGD1069; CV-1 cells.
In assay [6] the target is T2, RXRβ. Briefly: RXR homodimer co-transfection assay, antagonist mode, RXRβ. As to conditions: read-out: RXRβ Potency IC50; antagonist potency in the presence of the known RXR agonist LGD1069; CV-1 cells.
For assay [7], the target named is T3, RXRγ. Briefly: RXR homodimer co-transfection assay, antagonist mode, RXRγ. As to conditions: read-out: RXRγ Potency IC50; antagonist potency in the presence of the known RXR agonist LGD1069; CV-1 cells.
Assay [8] concerns the target T4, RXRα:RXRα homodimer (Homo sapiens, UniProt P19793).
T4 sequence (P19793 227-458 limits assumed): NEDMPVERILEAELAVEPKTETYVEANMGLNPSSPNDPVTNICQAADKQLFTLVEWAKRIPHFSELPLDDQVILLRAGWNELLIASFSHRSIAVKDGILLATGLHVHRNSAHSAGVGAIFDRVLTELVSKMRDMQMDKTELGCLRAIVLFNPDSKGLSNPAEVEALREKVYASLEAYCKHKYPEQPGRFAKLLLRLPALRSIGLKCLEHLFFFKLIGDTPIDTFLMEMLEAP
Description: Gal4-receptor chimera transactivation assay, RXR homodimer.
Description: (§3) Briefly, CV-1 cells were transfected in 12 well multi-well plates using 0.1 μg of each receptor and 0.5 μg of reporter per well. Each well was also transfected with 0.5 μg of the β-Gal expression plasmid as an internal control for transfection efficiency. Total plasmid per well was 2 μg made up using the plasmid pGEM. […] Receptor ligand binding domains (LBDs) were fused in-frame downstream to the Gal4 cDNA to produce Gal4-receptor fusion proteins. To express only the receptor LBDs, the LBD was cloned directly downstream to the CMV promoter.
Cells were then washed 2X with PBS and lysed using Promega lysis buffer and assayed for luciferase activity and β-galactosidase activity. All results were normalized against β-Gal. Each set was done in triplicates and each experiment was carried out at least 3 separate times with similar results.

Assay [9] addresses T5, RXRα:RARα heterodimer (Homo sapiens, UniProt P19793).
T5 sequence (P19793 227-458 limits assumed): T4 sequence (P19793 227-458 limits assumed)
T5 sequence (P10276 183-417 partner limits assumed): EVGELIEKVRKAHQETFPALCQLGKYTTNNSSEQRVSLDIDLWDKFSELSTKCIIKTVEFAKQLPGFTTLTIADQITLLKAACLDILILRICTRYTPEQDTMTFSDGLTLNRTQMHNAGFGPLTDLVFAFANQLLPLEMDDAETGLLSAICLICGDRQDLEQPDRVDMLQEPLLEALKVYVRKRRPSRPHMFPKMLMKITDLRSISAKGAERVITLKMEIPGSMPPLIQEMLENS
Description: Gal4-receptor chimera transactivation assay, RXRα:RARα heterodimer.
Description: as §3
Cells were then washed 2X with PBS and lysed using Promega lysis buffer and assayed for luciferase activity and β-galactosidase activity. All results were normalized against β-Gal.
The above assay system was used because reporter activity is dependent upon the binding of the Gal4 DNA binding domain to copies of its binding site, the UAS (upstream activation sequence), located upstream of the luciferase cDNA. […] Since endogenous receptors lack the Gal4 DNA binding domain, no background activation of the reporter is observed, however, Gal4-receptor LBD fusion proteins can bind the Gal4 site and be activated in a receptor ligand dependent manner. This system, therefore, completely eliminates the low background activity of endogenous receptors in CV-1 cells making it possible to test compound activity on exogenously added receptors.

For assay [10], the target named is T6, RXR:RXR homodimer (Homo sapiens, UniProt P19793).
T6 sequence (P19793 1-462): T1 sequence (P19793 1-462)
Briefly: RXR homodimer co-transfection assay (FIG. 1). As to conditions: in the presence of known RXR activators (LGD1069, LG100268, 9-cis retinoic acid).

Entries after “also recorded” stand apart in the source; their conditions may differ.

Usually Kd stands for a measure of binding affinity in units of concentration. By IC50 is commonly meant the concentration that gives 50% inhibition.

With `CC1=C(/C=C/C(C)=C\C=C\C(C)=C\C(=O)O)C(C)(C)CCC1` [9-cis retinoic acid], the “differentiation of NB4 cells (in words)” value in assay [1] was “stimulate NB4 cells to differentiate”.
Consider `CCCc1cc2c(cc1C1(c3ccc(C(=O)O)cc3)CC1)C(C)(C)CCC2(C)C` [Compound 103, 4-[(3-n-propyl-5,6,7,8-tetrahydro-5,5,8,8-tetramethyl-2-naphthyl)cyclopropyl]benzoic acid], for which the figures for the Kd in assay [2], in assay [3] and in assay [4] were 389 nM, 846 nM and 936 nM, respectively. In addition, the half-maximal inhibitory concentration (IC50) in assay [5] came to 498 nM; in assay [6], 701 nM; in assay [7], 1670 nM.
Regarding `CCCOc1cc2c(cc1\C(C)=C/C=C/C(C)=C/C(=O)O)C(C)(C)CCC2(C)C` [Compound 122, (2E, 4E, 6Z)-7-[3-propoxy-5,5,8,8-tetramethyl-5,6,7,8-tetrahydro-2-naphthalen-2-yl]-3-methylocta-2,4,6-trienoic acid], the Kd in [3] turned out to be 29 nM; in assay [4], 33 nM. For the same compound, in [1], the “differentiation of NB4 cells (in words)” value is on record as “stimulate NB4 cells to differentiate; also recorded: equally, if not more effective in promoting differentiation of NB4 cells”.
As to `C/C(=C/C=C/C(C)=C/C(=O)O)c1cc2c(cc1OCc1ccc(C)cc1)C(C)(C)CCC2(C)C` [Compound 130, (2E, 4E, 6Z)-7-[3-(4-methylbenzyloxy)-5,6,7,8-tetrahydro-5,5,8,8-tetramethyl-2-naphthalen-2-yl]-3-methylocta-2,4,6-trienoic acid], the “Fold activation” value in [8] (CV-1 cells, 100 nM LG100268, LGD1069, 500 nM Compounds 117, 122, 130, 1 mM Compound 131, n.e. = no effect) is “n.e”. Besides, in assay [8] (compound alone), the “agonist activity on RXR homodimers in the GAL4 transfection assay (in words)” value was “inactive”. Besides, the “antagonist activity on RXR homodimers in the GAL4 transfection assay (in words)” value in assay [8] (in combination with either LGD1069 or LG100268) was “strong antagonists”. Moreover, the “Fold Repression” value in [8] (in combination with either LGD1069 or LG100268, 500 nM Compounds 117, 122, 130, 1 mM Compound 131) was 25-75 fold. Besides, the “effect on RXRα:RARα heterodimer in combination with TTNPB (in words)” value in [9] (combined with the RXR:RAR activator TTNPB, data not shown) is recorded as “slight increase in activation”. Besides, the “agonist activity on RXRα:RARα heterodimers (in words)” value in assay [9] (compound alone) is listed as “potent agonists”.
Regarding `CCCCCCCOc1c(\C(C)=C/C=C/C(C)=C/C(=O)O)cc(C(C)C)cc1C(C)C` [Compound 147, (2E, 4E, 6Z)-7-(3,5-diisopropyl-2-n-heptyloxyphenyl)-3-methylocta-2,4,6-trienoic acid], the Kd amounted to 3 nM in assay [2], 8 nM in assay [3] and 6 nM in assay [4]. For the same compound, the “antagonism of RXR homodimer transactivation (in words)” value in [10] is on record as “especially potent antagonist”.
Regarding `CCCOc1cc2c(cc1C1CC1C/C=C/C(C)=C/C(=O)O)C(C)(C)CCC2(C)C` (centres unmarked) [Compound 152, (2E, 4E)-6-[2-(5,5,8,8-tetramethyl-3-propyloxy-5,6,7,8-tetrahydronaphthalen-2-yl)cyclopropan-1-yl]-3-methyl hexadienoic acid], the Kd in assay [2] was found to be 8 nM; in [3], 45 nM; in assay [4], 21 nM. In addition, the values for the IC50 in assay [5], in [6] and in assay [7] were 195 nM, 337 nM and 428 nM, respectively.
With `Cc1cc2c(cc1C1(c3ccc(C(=O)O)cn3)CC1)C(C)(C)CCC2(C)C` [LG100268, 6-[1-(3,5,5,8,8-pentamethyl-5,6,7,8-tetrahydronaphthalen-2-yl)cyclopropyl]nicotinic acid], the “differentiation of NB4 cells (in words)” value in [1] is reported as “does not promote NB4 differentiation”; in [1] (listed as LB100268), “does not”.
On to `C/C(=C\c1ccc(C(=O)O)cc1)c1ccc2c(c1)C(C)(C)CCC2(C)C` [TTNPB, (E)-4-[2-(5,6,7,8-tetrahydro-5,5,8,8-tetramethyl-2-naphthalenyl)-1-propenyl]benzoic acid], for which the “differentiation of NB4 cells (in words)” value in assay [1] is “stimulate NB4 cells to differentiate”.
Turning to “(2E, 4E)-7-[(5,5,8,8-tetramethyl-3-heptyloxy-5,6,7,8-tetrahydronaphthalen-2-yl)cyclopropan-1-yl]-3-methyl heptadienoic acid [Compound 156]”, the equilibrium dissociation constant (Kd) in [2] was 11 nM; in assay [3], 7 nM; in assay [4] it was 9 nM. Further, the IC50 in assay [5] turned out to be 18 nM; in [6] it was 62 nM; in assay [7], 47 nM.
For the compound “(2E, 4E)-7-[(5,5,8,8-tetramethyl-3-propyloxy-5,6,7,8-tetrahydronaphthalen-2-yl)cyclopropan-1-yl]-3-methyl heptadienoic acid [Compound 155]”, the Kd in [2] is 9 nM; in [3], 9 nM; in assay [4], 8 nM. Besides, the IC50 in assay [5] was 24 nM; in assay [6], 53 nM; in assay [7], 37 nM.

For the origin of these results see US6545049B1, “Dimer-selective RXR modulators and methods for their use” (Ligand Pharmaceuticals Incorporated, priority 1995, dated 2003).
